From publication PMC11982498 (Redox Biology, 2025)
“Also recorded” adds a separate entry of the source.

Legend:
[1] = tested on: bio-BCL-2 (BCL-2 IM) (DNA, i motif) CAGCCCCGCTCCCGCCCCCTTCCTCCCGCGCCCGCCCCT; experiment: SPR; conditions: K+ 100 mM; 20 mM MES, pH 5.5, 25 °C
[2] = tested on: bio-(G2C4)6 (DNA, i motif) GGCCCCGGCCCCGGCCCCGGCCCCGGCCCCGGCCCC; experiment: SPR; conditions: K+ 100 mM; 20 mM MES, pH 5.5, 25 °C
[3] = molecular target: T1, Aβ1-42 (Homo sapiens, UniProt P05067); experiment: Thioflavine T (ThT) assay of self-induced Aβ1-42 aggregation; type: biochemical
T1 construct: Aβ1-42 was purchased from Gill Biochemicals Ltd (Shanghai, China); purchased Gill Biochemicals Ltd (Shanghai, China)
Description: The experiment was performed following standardized amyloid detection protocols without significant modification. Curcumin (Aladdin, Shanghai, China), a natural inhibitor of Aβ deposition, was used as a positive control with ThT (Aladdin, Shanghai, China) as a fluorescent indicator. 30 μL of freshly formulated Aβ1-42 (30 μM) was incubated without or with A1-16, B1-14, Curcumin at concentration of 40 μM for 24h. Then, it was mixed with 400 μL of freshly formulated ThT (15 μM), which was incubated in the dark for 30 min. Fluorescence signals were recorded using a fluorescence spectrophotometer, and changes in Aβ fibre deposition were determined through the strength of the fluorescence signals. The scanning conditions were set as follows: excitation wavelength at 440 nm, emission wavelength at 480 nm, and slit width of 20 nm.
^a Self-induced Aβ1-42 aggregation (means ± SD of three experiments). The thioflavin-T fluorescence method was used, and the measurements were carried out in the presence of 40 μM test compound. […]
[picture] […] The fluorescence intensity of different concentrations of B14 was measured after incubation with Aβ1-42. Data were statistically analyzed as mean ± SEM. (A) ThT fluorescence intensity. (B) IC50 value for B14 against Aβ1-42 aggregation was determined by using ThT fluorescence intensity.

[4] = molecular target: T1, Aβ1-42; experiment: Circular dichroism of Aβ1-42 secondary structure; type: biochemical; conditions: 20 μM compound, 72 h
Description: (§1) The circular dichroism (CD) experiment was performed to investigate the effect of B14 (20 μM) or Curcumin (20 μM) on the change of Aβ1-42 secondary structure. The Aβ1-42 solutions (100 μM) were co-incubated with B14 (20 μM) or Curcumin (20 μM) at 37 °C for 72h. Ellipticity changes of Aβ1-42 were monitored employing a Chirascan CD spectropolarimeter (Chirascan, England).
as §1, with “Circular dichroism” for “The circular dichroism”, “μM) and” for “μM) or”, “spectropolarimeter (Applied Photophysics, UK).” for “spectropolarimeter (Chirascan, England).”

[5] = tested on: BCL-2 i-motif; experiment: CD spectra of BCL-2 i-motif; type: binding
Description: Figure S5. ESI-MS, UV, CD, and EMSA experiments were performed to examine the effect of B14 on BCL-2 promoter i-motif and G-quadruplex. (A) ESI-MS experiment for oligomer BCL-2 G4 alone, which was annealed in 1 × BPES buffer at pH 7.4. (B) ESI-MS experiment for above oligomer BCL-2 G4 with addition of B14 in 1 × BPES buffer at pH 7.4. (C-D) TO displacement with increasing amount of oligomer BCL-2 i-motif annealed in 1 X BPES buffer at pH 5.5 in the presence of 20 equivalents of B14 or A22. (E) EMSA experiment was performed for the effect of B14 on inducing BCL-2 i-motif formation. The lanes from left to right were as follow: BCL-2 i-motif alone at pH 5.5; BCL-2 i-motif alone at pH 6.2; BCL-2 i-motif plus 1 eq B14 at pH 6.2; BCL-2 i-motif plus 5 eq B14 at pH 6.2; BCL-2 i-motif plus 10 eq B14 at pH 6.2. (F) CD experiment was performed to study the interaction of B14 or A22 with BCL-2 promoter i-motif.
CD measurements were performed on a Chirascan circular dichroism spectrophotometer (Chirascan, England). A 10 mm path length quartz cuvette was used to record the spectra with a wavelength range of 230-350 nm with a 1 nm bandwidth. CD and CD melting experiments were performed at a fixed i-motif or G-quadruplex concentration (1 μM) with or without a fixed concentration (20 μM) of B14 and Curcumin in different buffers. […]

[6] = tested on: APP/PS1 transgenic mice; experiment: Nest building test (NBT); type: in vivo; conditions: B14 10, 20, 40 mg/kg i.p. every other day
Excerpt: Five months old male APP/PS1 mice, weighing 25–33 g, were purchased from Guangdong Medical Laboratory Animal Center and housed in the Laboratory Animal Center of Sun Yat-sen University (Guangzhou, China) for experimentation. All procedures were approved by the Animal Care and Use Committee of Sun Yat-sen University and complied with legal requirements and national guidelines for the care and maintenance of laboratory animals (Approval No. SYSU-IACUC-2024-002032). The mice were housed in a specific pathogen-free environment with a controlled temperature of 22 ± 1 °C and a 12-h dark/light cycle. The mice were fed with a standard diet, and 30 mice were randomly divided into 6 groups (N = 5). Compound B14 was dissolved in saline and administered at doses of 10, 20, or 40 mg/kg. […]
The spatial memory and learning abilities of the mice were assessed using Morris water maze (MWM), novel object recognition (NOR) and nesting experiments (NBT). The anxiety and depressive behaviors were evaluated through the open field test (OFT) and elevated plus maze (EPM). […]
The nest building test (NBT) assesses fine motor dexterity, cognitive function, and emotional states in mice while minimizing stress. […] After this period, photographs were taken of the paper sheets, and the nests built by the mice were scored.

T1 sequence (P05067 672-713 limits assumed): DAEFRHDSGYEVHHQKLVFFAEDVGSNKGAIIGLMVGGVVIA

Compound `O=C(CCN1CCOCC1)Nc1ccc2c(c1)c(=O)c1cc(NC(=O)CCN3CCOCC3)ccc1n2-c1ccc2occc2c1` [Compound B14] has a KD [1] of 2.13 µM, a KD [2] of 33.30 µM and an inhibition at 40 µM ([3]; 40 μM compound, ThT fluorescence, read-out: inhibition of Aβ self-aggregation) of 78.4%. The IC50 ([3]; ThT fluorescence intensity, read-out: IC50 against Aβ1-42 aggregation) was 24 µM, the “CD signal intensity of Aβ1-42” value [4] was “much decreased” and the “CD absorption peak of BCL-2 i-motif” value [5] was “stronger effect than A22; also recorded: apparently enhanced absorption peak at 286 nm”. The “nesting scores (NBT)” value [6] was “significantly improved”.
